# Results as given in patent US12060347B2 (BRISTOL-MYERS SQUIBB COMPANY, priority 2016, dated 2024).
# pIC50: −log10 of the molar value.
# Biological target: T1, human PAR4 (Homo sapiens, UniProt Q96RI0)
# T1 construct: expressed in transfected cells; host or cells: HEK293 PAR4 Clone 1.2A (BMS Arctic ID 383940)
# T1 sequence (Q96RI0 18-385): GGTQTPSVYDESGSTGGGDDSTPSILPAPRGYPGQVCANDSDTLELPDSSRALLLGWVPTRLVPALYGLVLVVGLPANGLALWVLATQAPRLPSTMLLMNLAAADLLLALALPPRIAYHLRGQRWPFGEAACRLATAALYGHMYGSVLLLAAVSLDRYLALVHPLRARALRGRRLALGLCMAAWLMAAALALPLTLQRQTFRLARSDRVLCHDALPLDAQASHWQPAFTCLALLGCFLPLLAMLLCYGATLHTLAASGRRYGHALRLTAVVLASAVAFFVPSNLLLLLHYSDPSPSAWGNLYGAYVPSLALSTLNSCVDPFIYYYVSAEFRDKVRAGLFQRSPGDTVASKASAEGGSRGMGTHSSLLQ
# Experiment: PAR4 FLIPR assay: antagonism of agonist-peptide-induced calcium mobilization in PAR4-expressing HEK293 cells
# Format: cell-based
# Conditions: H-Ala-Phe(4-F)-[…]NH2-induced intracellular calcium mobilization, 11-point curves
row,Compound,pIC50
1,"COc1cnc2c(-c3nc4c(C)cc(OCCNS(=O)(=O)c5ccc(F)cc5)cc4s3)cc(CO)cc2n1 [Example 235, 4-fluoro-N-(2-((2-(7-(hydroxymethyl)-2-methoxyquinoxalin-5-yl)-4-methylbenzo[d]thiazol-6-yl)oxy)ethyl)benzenesulfonamide]",8.66
2,"COc1cnc2c(-c3nc4c(C)cc(OCCNS(=O)(=O)c5ccc(F)cc5)cc4s3)cc(C(O)CO)cc2n1 (stereo not drawn) [Example 236, N-(2-((2-(7-(1,2-dihydroxyethyl)-2-methoxyquinoxalin-5-yl)-4-methylbenzo[d]thiazol-6-yl)oxy)ethyl)-4-fluorobenzenesulfonamide]",6.85
3,"COc1cnc2c(-c3nc4c(C)cc(OCCNS(=O)(=O)c5ccc(F)cc5)cc4s3)cc(CCO)cc2n1 [Example 237, 4-fluoro-N-(2-((2-(7-(2-hydroxyethyl)-2-methoxyquinoxalin-5-yl)-4-methylbenzo[d]thiazol-6-yl)oxy)ethyl)benzenesulfonamide]",6.77
4,"COc1cnc2c(-c3nc4c(C)cc(OCCNS(=O)(=O)c5ccc(F)cc5)cc4s3)cc(CN)cc2n1 [Example 238, N-(2-((2-(7-(aminomethyl)-2-methoxyquinoxalin-5-yl)-4-methylbenzo[d]thiazol-6-yl)oxy)ethyl)-4-fluorobenzenesulfonamide]",5.89
5,"COc1cnc2c(-c3nc4c(C)cc(OCCNS(=O)(=O)c5ccc(F)cc5)cc4s3)cc(C(C)O)cc2n1 (stereo not drawn) [Example 239, 4-fluoro-N-(2-((2-(7-(1-hydroxyethyl)-2-methoxyquinoxalin-5-yl)-4-methylbenzo[d]thiazol-6-yl)oxy)ethyl)benzenesulfonamide]",8.10
6,"COc1cnc2c(-c3nc4c(C)cc(OCCNS(=O)(=O)c5ccc(F)cc5)cc4s3)cc(C(O)c3ccccc3)cc2n1 (stereo not drawn) [Example 240, 4-fluoro-N-(2-((2-(7-(hydroxy(phenyl)methyl)-2-methoxyquinoxalin-5-yl)-4-methylbenzo[d]thiazol-6-yl)oxy)ethyl)benzenesulfonamide]",7.14
7,"C=C(C)c1cc(-c2nc3c(C)cc(OCCNS(=O)(=O)c4ccc(F)cc4)cc3s2)c2ncc(OC)nc2c1 [Example 241, 4-fluoro-N-(2-((2-(2-methoxy-7-(prop-1-en-2-yl)quinoxalin-5-yl)-4-methylbenzo[d]thiazol-6-yl)oxy)ethyl)benzenesulfonamide]",8.27
8,"COc1cnc2c(-c3nc4c(C)cc(OCCNS(=O)(=O)c5ccc(F)cc5)cc4s3)cc(C(C)(C)O)cc2n1 [Example 242, 4-fluoro-N-(2-((2-(7-(2-hydroxypropan-2-yl)-2-methoxyquinoxalin-5-yl)-4-methylbenzo[d]thiazol-6-yl)oxy)ethyl)benzenesulfonamide]",6.92
9,"COc1cnc2c(-c3nc4c(C)c(F)c(OC)cc4s3)cc(CO)cc2n1 [Example 243, (8-(5-fluoro-6-methoxy-4-methylbenzo[d]thiazol-2-yl)-3-methoxyquinoxalin-6-yl) methanol]",8.92
10,"COc1cnc2c(-c3nc4c(C)c(F)c(OC)cc4s3)cc(C(C)O)cc2n1 (stereo not drawn) [Example 244, 1-(8-(5-fluoro-6-methoxy-4-methylbenzo[d]thiazol-2-yl)-3-methoxyquinoxalin-6-yl) ethanol]",8.70
11,"COc1cnc2c(-c3nc4c(C)c(F)c(OC)cc4s3)cc(C(O)c3ccccc3)cc2n1 (stereo not drawn) [Example 245, (8-(5-fluoro-6-methoxy-4-methylbenzo[d]thiazol-2-yl)-3-methoxyquinoxalin-6-yl) (phenyl)methanol]",7.04
12,"COc1cnc2c(-c3nc4c(C)c(F)c(OC)cc4s3)cc(C(O)C3CC3)cc2n1 (stereo not drawn) [Example 246, Cyclopropyl(8-(5-fluoro-6-methoxy-4-methylbenzo[d]thiazol-2-yl)-3-methoxyquinoxalin-6-yl)methanol]",6.85
13,"Cc1cnc2c(-c3nc4c(C)cc(OCCNS(=O)(=O)c5ccc(F)cc5)cc4s3)cc(F)cc2n1 [Example 247, 4-fluoro-N-(2-((2-(7-fluoro-2-methylquinoxalin-5-yl)-4-methylbenzo[d]thiazol-6-yl)oxy)ethyl)benzenesulfonamide]",7.72
14,"COc1cnc2c(-c3nc4cc(F)c(OC(C)C)cc4s3)cc(CO)cc2n1 [Example 248, (8-(5-fluoro-6-isopropoxybenzo[d]thiazol-2-yl)-3-methoxyquinoxalin-6-yl)methanol]",7.72
15,"COc1cnc2c(-c3nc4c(C)cc(OCCNS(=O)(=O)c5cccnc5)cc4s3)cc(Cl)cc2n1 [Example 249, N-(2-((2-(7-chloro-2-methoxyquinoxalin-5-yl)-4-methylbenzo[d]thiazol-6-yl)oxy)ethyl)pyridine-3-sulfonamide]",8.16
16,"CCOC(=O)COc1cc(C)c2nc(-c3cc(Cl)cc4nc(OC)cnc34)sc2c1 [Example 250, Ethyl 2-((2-(7-chloro-2-methoxyquinoxalin-5-yl)-4-methylbenzo[d]thiazol-6-yl)oxy) acetate]",7.51
17,"COc1cnc2c(-c3nc4c(C)cc(OCC(=O)O)cc4s3)cc(Cl)cc2n1 [Example 251, 2-((2-(7-chloro-2-methoxyquinoxalin-5-yl)-4-methylbenzo[d]thiazol-6-yl)oxy)acetic acid]",7.77
18,"COc1ccc(NC(=O)OCCOc2cc(C)c3nc(-c4cc(CO)cc5nc(OC)cnc45)sc3c2)cn1 [Example 252, 2-((2-(7-(hydroxymethyl)-2-methoxyquinoxalin-5-yl)-4-methylbenzo[d]thiazol-6-yl)oxy)ethyl (6-methoxypyridin-3-yl)carbamate]",9.30
19,"COCc1cnc2c(-c3nc4ccc(OC)cc4s3)cc(C)cc2n1 [Example 253, 6-methoxy-2-(2-(methoxymethyl)-7-methylquinoxalin-5yl)benzo[d]thiazole]",9.22
20,"COCc1cnc2c(-c3nc4c(F)cc(OC)cc4s3)cc(C)cc2n1 [Example 254, 4-fluoro-6-methoxy-2-(2-(methoxymethyl)-7-methylquinoxalin-5-yl)benzo[d]thiazole]",8.82
21,"CCOc1ccc2nc(-c3cc(C)cc4nc(COC)cnc34)sc2c1 [Example 255, 6-ethoxy-2-(2-(methoxymethyl)-7-methylquinoxalin-5-yl)benzo[d]thiazole]",9.10
22,"COCc1cnc2c(-c3nc4ccccc4s3)cc(C)cc2n1 [Example 256, 2-(2-(methoxymethyl)-7-methylquinoxalin-5-yl)benzo[d]thiazole]",8.92
23,"COCc1cnc2c(-c3nc4c(F)cc(F)cc4s3)cc(C)cc2n1 [Example 257, 4,6-difluoro-2-(2-(methoxymethyl)-7-methylquinoxalin-5-yl)benzo[d]thiazole]",8.68
24,"COCc1cnc2c(-c3nc4c(OC)cc(OC)cc4s3)cc(C)cc2n1 [Example 258, 4,6-dimethoxy-2-(2-(methoxymethyl)-7-methylquinoxalin-5-yl)benzo[d]thiazole]",8.55
25,"COCc1cnc2c(-c3nc4c(OC)cccc4s3)cc(C)cc2n1 [Example 259, 4-methoxy-2-(2-(methoxymethyl)-7-methylquinoxalin-5-yl)benzo[d]thiazole]",7.85
26,"COCc1cnc2c(-c3nc4c(Cl)cccc4s3)cc(C)cc2n1 [Example 260, 4-chloro-2-(2-(methoxymethyl)-7-methylquinoxalin-5-yl)benzo[d]thiazole]",8.32
27,"COCc1cnc2c(-c3nc4c(C)cccc4s3)cc(C)cc2n1 [Example 261, 2-(2-(methoxymethyl)-7-methylquinoxalin-5-yl)-4-methylbenzo[d]thiazole]",8.92
